Measured values reported in ChEMBL document CHEMBL3352614, “MoGAT-2 Inhibitors May Provide Effective Treatment for Hypertriglyceridemia” (ACS Med Chem Lett, 2014).

Target: 2-acylglycerol O-acyltransferase 2 (Homo sapiens, UniProt Q3SYC2)
Assay: Inhibition of human MoGAT-2 expressed in human Caco2 cells assessed as inhibition of 2-O-Hexadecylglycerol […] pretreated for 30 mins by LC-MS analysis
Type: cell-based, Caco-2

Chain of 2-acylglycerol O-acyltransferase 2 (Q3SYC2 whole entry): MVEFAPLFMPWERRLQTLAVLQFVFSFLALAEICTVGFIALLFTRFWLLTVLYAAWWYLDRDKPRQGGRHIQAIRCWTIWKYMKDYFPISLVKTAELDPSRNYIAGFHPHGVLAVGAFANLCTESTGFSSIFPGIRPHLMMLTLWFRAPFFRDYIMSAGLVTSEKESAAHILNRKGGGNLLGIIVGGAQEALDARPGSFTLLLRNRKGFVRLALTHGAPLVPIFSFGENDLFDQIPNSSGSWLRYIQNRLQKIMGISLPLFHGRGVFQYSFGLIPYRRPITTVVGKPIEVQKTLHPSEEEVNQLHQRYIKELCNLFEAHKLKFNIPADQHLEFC

## C[C@@H](NS(C)(=O)=O)c1ccc(CNC[C@@H]2CO[C@@H](c3ccccc3)CO2)cc1
  IC50: 294 nM
